Data taken from paper PMC4154712 (Journal of medicinal chemistry, 2014).

Experiments:
[1] = tested on: tubulin; assay: Tubulin assembly; assay type: biochemical; conditions: for IC50: read-out: Tubulin Assembly IC50 ± SD, tubulin at 10 μM
[2] = tested on: HCT116 (human colon carcinoma cells); conditions: read-out: IC50 ± SD HCT116; ref 10b; cited from earlier work
[3] = tested on: A549 (human lung carcinoma) cells; conditions: read-out: IC50 ± SD A549; MTT method; 48 h; ref 10b; cited from earlier work
[4] = tested on: HeLa cells; assay: Cell cycle analysis in HeLa cells; assay type: cell-based, human; conditions: 24 h; for cell cycle arrest, in words: 20 nM; for cell cycle arrest (G2/M accumulation), in words: 100 nM
[5] = tested on: human liver hepatocellular carcinoma cell line HepG2; assay: Growth inhibition of HepG2 cells; assay type: cell-based; conditions: HepG2, 48 h, read-out: IC50 ± SD HepG2
[6] = tested on: RD cells; assay: Cell cycle analysis in RD cells; assay type: cell-based; conditions: lowest concentration (500 nM), 24 h
[7] = tested on: PC-3 cells; assay: Cell cycle analysis in PC-3 cells; assay type: cell-based, human; conditions: PC-3, lowest concentration (500 nM), 24 h
[8] = tested on: HepG2 cells; assay: Cell cycle analysis in HepG2 cells; assay type: cell-based, human; conditions: HepG2, lowest concentration (500 nM), 24 h
[9] = tested on: MCF-7 human breast carcinoma cells; assay: cells; conditions: MCF7, 96 h, read-out: MCF-7 IC50 ± SD
[10] = tested on: HeLa (human cervical carcinoma) cells; conditions: read-out: IC50 ± SD HeLA; MTT method; 48 h; ref 10b; cited from earlier work
[11] = tested on: HT29 (human colon adenocarcinoma) cells; conditions: read-out: IC50 ± SD HT-29; MTT method; 48 h; ref 10b; cited from earlier work
[12] = in vitro; conditions: human, Caco-2

COc1cc(C(=O)c2ccn(-c3cccc(N4CCCCC4)c3)c2)cc(OC)c1OC [Compound 31, (1-(3-(Piperidin-1-yl)phenyl)-1H-pyrrol-3-yl)(3,4,5-trimethoxyphenyl)methanone]
IC50 [1]: > 20000 nM

COc1ccc(C(=O)c2ccn(-c3cc(OC)c(OC)c(OC)c3)c2)cc1OC(C)C [Compound 53, (3-Isopropoxy-4-methoxyphenyl)(1-(3,4,5-trimethoxyphenyl)-1H-pyrrol-3-yl)methanone]
IC50 [1]: > 20000 nM

(3-Isopropoxy-4-methoxyphenyl)(1-(3,4,5-trimethoxyphenyl)-1H-pyrrol-3-yl)methanone [Compound 52]
IC50 [1]: > 20000 nM

COc1cc(C(=O)c2ccn(C)c2)cc(OC)c1OC [Compound 10, (1-Methyl-1H-pyrrol-3-yl)(3,4,5-trimethoxyphenyl)methanone]
effect on tubulin polymerization (in words) [1]: did not inhibit tubulin assembly

COc1cc(-n2ccc(C(=O)c3ccccc3)c2)cc(OC)c1OC [Compound 50, Phenyl(1-(3,4,5-trimethoxyphenyl)-1H-pyrrol-3-yl)methanone]
IC50 [1]: > 20000 nM

COc1cc(C(=O)c2ccn(-c3ccc(C)cc3)c2)cc(OC)c1OC [Compound 34, (1-(4-Tolyl)-1H-pyrrol-3-yl)(3,4,5-trimethoxyphenyl)methanone]
IC50 [1]: ≤ 1000 nM

COc1cc(C(=O)c2ccn(-c3cccc(C)c3)c2)cc(OC)c1OC [Compound 33, (1-(3-Tolyl)-1H-pyrrol-3-yl)(3,4,5-trimethoxyphenyl)methanone]
IC50 [1]: ≤ 1000 nM

COc1cc(C(=O)c2ccn(-c3ccccc3[N+](=O)[O-])c2)cc(OC)c1OC [Compound 18, (1-(2-Nitrophenyl)-1H-pyrrol-3-yl)(3,4,5-trimethoxyphenyl)-methanone]
IC50 [1]: > 20000 nM

COc1ccc(/C=C\c2cc(OC)c(OC)c(OC)c2)cc1O [Compound 2, combretastatin A-4]
IC50 [2]: 5 ± 0.4 nM | IC50 [3]: > 10000 nM

COc1cc(C(=O)c2ccn(-c3ccccc3)c2)cc(OC)c1OC [Compound 4, (1-Phenyl-1H-pyrrol-3-yl)-(3,4,5-trimethoxyphenyl)methanone]
cell cycle arrest, in words [4]: only a minimal effect | cell cycle arrest (G2/M accumulation), in words [4]: effectively arrested cell cycle progression

COc1ccc(-n2ccc(C(=O)c3cc(OC)c(OC)c(OC)c3)c2)cc1[N+](=O)[O-] [Compound 45, (1-(4-Methox y-3-ni tro phenyl)-1H-pyrrol-3-yl)(3,4,5-trimethoxyphenyl)methanone]
IC50 [1]: 15000 ± 70 nM

O=C(c1ccccc1)c1ccn(-c2ccccc2)c1 [Compound 11, Phenyl(1-phenyl-1H-pyrrol-3-yl)methanone]
effect on tubulin polymerization (in words) [1]: did not inhibit tubulin assembly | IC50 [1]: > 20000 nM

COc1cc(C(=O)c2ccn(-c3cccc(OCc4ccccc4)c3)c2)cc(OC)c1OC [Compound 41, (1-(3-(Benzyloxy)phenyl)-1H-pyrrol-3-yl)(3,4,5-trimethoxyphenyl)methanone]
IC50 [1]: > 20000 nM

CC(=O)O[C@H]1C(=O)[C@@]2(C)[C@H]([C@H](OC(=O)c3ccccc3)[C@]3(O)C[C@H](OC(=O)[C@H](O)[C@@H](NC(=O)c4ccccc4)c4ccccc4)C(C)=C1C3(C)C)[C@]1(OC(C)=O)CO[C@@H]1C[C@@H]2O [PTX, paclitaxel]
IC50 [5]: 2037 ± 2 nM | IC50 [3]: 7 ± 2 nM

COc1cc(C(=O)c2ccn(-c3cccc(NS(C)(=O)=O)c3)c2)cc(OC)c1OC [Compound 28, N-(3-(3-(3,4,5-Trimethoxybenzoyl)-1H-pyrrol-1-yl)phenyl)-methanesulfonamide]
IC50 [1]: ≤ 1000 nM

COc1cc(C(=O)c2ccn(-c3ccccc3F)c2)cc(OC)c1OC [Compound 15, (1-(2-Fluorophenyl)-1H-pyrrol-3-yl)(3,4,5-trimethoxyphenyl)-methanone]
IC50 [1]: ≤ 1000 nM

COc1cc(C(=O)c2ccn(-c3cccc(NC(=N)N)c3)c2)cc(OC)c1OC.Cl [Compound 27, 1-(3-(3-(3,4,5-Trimethoxybenzoyl)-1H-pyrrol-1-yl)phenyl)-guanidine Hydrochloride]
cell cycle arrest, in words [6]: effectively arrested cell cycle progression | cell cycle arrest, in words [7]: effectively arrested cell cycle progression | cell cycle arrest, in words [8]: effectively arrested cell cycle progression

CC[C@]1(O)C[C@H]2CN(CCc3c([nH]c4ccccc34)[C@@](C(=O)OC)(c3cc4c(cc3OC)N(C=O)[C@H]3[C@@](O)(C(=O)OC)[C@H](OC(C)=O)[C@]5(CC)C=CCN6CC[C@]43[C@@H]65)C2)C1 [VCR, vincristine]
IC50 [5]: 177 ± 1.6 nM

COc1cc(C(=O)c2ccn(-c3ccc(OC(C)C)cc3)c2)cc(OC)c1OC [Compound 40, (1-(4-Isopropoxyphenyl)-1H-pyrrol-3-yl)(3,4,5-trimethoxyphenyl)-methanone]
IC50 [1]: > 20000 nM

COc1cc(C(=O)c2ccn(-c3cccc([N+](=O)[O-])c3)c2)cc(OC)c1OC [Compound 19, (1-(3-Nitrophenyl)-1H-pyrrol-3-yl)(3,4,5-trimethoxyphenyl)-methanone]
IC50 [9]: 230 ± 60 nM

COc1cc(C(=O)c2cc[nH]c2)cc(OC)c1OC [Compound 9, (1H-Pyrrol-3-yl)(3,4,5-trimethoxyphenyl)methanone]
effect on tubulin polymerization (in words) [1]: did not inhibit tubulin assembly

CC[C@]1(O)C[C@@H]2CN(CCc3c([nH]c4ccccc34)[C@@](C(=O)OC)(c3cc4c(cc3OC)N(C)[C@H]3[C@@](O)(C(=O)OC)[C@H](OC(C)=O)[C@]5(CC)C=CCN6CC[C@]43[C@@H]65)C2)C1 [VBL, vinblastine]
IC50 [10]: 10 ± 0.6 nM | IC50 [11]: 30 ± 0.8 nM | IC50 [3]: 20 ± 2 nM

CNc1cccc(-n2ccc(C(=O)c3cc(OC)c(OC)c(OC)c3)c2)c1 [Compound 24, (1-(3-(Methylamino)phenyl)-1H-pyrrol-3-yl)(3,4,5-trimethoxyphenyl)methanone]
IC50 [1]: ≤ 1000 nM

COc1cc(C(=O)c2ccn(-c3cccc(N)c3)c2)cc(OC)c1OC [Compound 22, (1-(3-Aminophenyl)-1H-pyrrol-3-yl)(3,4,5-trimethoxyphenyl)-methanone]
Papp [12]: > 5 ×10⁻⁶ cm/s | efflux ratio [12]: < 2 | cell cycle arrest, in words [4]: as effective as VBL and 2 | cell cycle arrest (G2/M accumulation), in words [4]: effectively arrested cell cycle progression | cell cycle arrest, in words [6]: effectively arrested cell cycle progression | cell cycle arrest, in words [7]: effectively arrested cell cycle progression | cell cycle arrest, in words [8]: effectively arrested cell cycle progression

COc1cc(C(=O)c2ccn(-c3ccc([N+](=O)[O-])cc3)c2)cc(OC)c1OC [Compound 20, (1-(4-Nitrophenyl)-1H-pyrrol-3-yl)(3,4,5-trimethoxyphenyl)-methanone]
IC50 [1]: > 20000 nM
